Tested on: H1975-OR xenografts
Assay: H1975-OR xenograft tumor growth
Format: in vivo, mice
Settings: osimertinib p.o. 5 mg/kg daily, NGI-189 i.p. 10 mg/kg every other day

C=CC(=O)Nc1cc(Nc2nccc(-c3cn(C)c4ccccc34)n2)c(OC)cc1N(C)CCN(C)C [osimertinib]
tumor response: did not respond

Source: PMC11643024 (bioRxiv, 2024)
